From patent US20140121373A1, “PROCESS FOR PREPARING STABLE POLYMORPHIC FORM OF ERLOTINIB HYDROCHLORIDE” (CADILA HEALTHCARE LIMITED, priority 2011, published 2014)

Experiment: Chemical stability study of the stable form of Erlotinib hydrochloride (description, HPLC impurities, moisture content, assay on storage)
Format: physicochemical
Settings: for Imp-1 (%) (N-(3-Ethynylphenyl)-6-(2-chloroethoxy)-7-(2-methoxyethoxy)-quinazolin-4-amine hydrochloride) / Imp-2 (%) (N-(3-Ethynylphenyl)-7-(2-chloroethoxy)-6-(2-methoxyethoxy)-quinazolin-4-amine hydrochloride): limit 0.15 w/w; for m/c (%): limit 0.5 w/w; for Assay (%), OAB: limit 98.0-102 w/w; for Description: limit White to off white; for HPLC single maximum impurity content / HPLC total impurity content / water content: storage condition not stated
Experimental: (Refrigerator), 25° C.±2° C.[…], 30° C.±2° C./65%±5% RH (Real Time) and 40° C.±2° C./75%±5% RH of Erlotinib Hydrochloride
Differential Scanning Calorimetry (DSC): Melting points are determined by means of a DSC thermogram using a Pyris-1 make Perkin Elmer. DSC (Differential Scanning Calorimetry) is the technique of dynamic differential Calorimetry. Using this technique, the melting temperature can be measured by heating the sample until a thermal, i.e. an endothermic or exothermic, reaction is detected by means of ultrasensitive sensors. The DSC cell/sample chamber was purged with 100 ml/min of ultra-high purity nitrogen. The instrument was calibrated with high purity Indium. The sample was placed into an open aluminum DSC pan and measured against an empty reference pan. About 2 mg of sample being placed into the bottom of the pan and lightly tapped down to ensure good contact with the pan. The instrument was programmed to heat at a heating rate of 10° C./min in the temperature range between 50° C. and 300° C. • Microscope: A Lieca Microscope with Linkam Hot stage microscopy (TMS-94) system with polarized light, CCD camera and Linksys 32 data software. • HPLC: High Performance Liquid Chromatography Separation Module with PDA detector, Make Waters, Model No 2695. • KF: Moisture content was analyzed by using Karl Fisher Autotitrator 795 KFT Titrino make Metrohm.

[1] = 5° C. ± 3° C. (Refrigerator), Month 1
[2] = 5° C. ± 3° C. (Refrigerator), Month 2
[3] = 5° C. ± 3° C. (Refrigerator), Month 3
[4] = 5° C. ± 3° C. (Refrigerator), Month 6
[5] = 25° C. ± 2° C./60% ± 5% RH, Month 1
[6] = 25° C. ± 2° C./60% ± 5% RH, Month 2
[7] = 25° C. ± 2° C./60% ± 5% RH, Month 3
[8] = 25° C. ± 2° C./60% ± 5% RH, Month 6
[9] = 30° C. ± 2° C./65% ± 5% RH (Real Time), Month 1
[10] = 30° C. ± 2° C./65% ± 5% RH (Real Time), Month 2
[11] = 30° C. ± 2° C./65% ± 5% RH (Real Time), Month 3
[12] = 30° C. ± 2° C./65% ± 5% RH (Real Time), Month 6
[13] = 40° C. ± 2° C./75% ± 5% RH, Month 1
[14] = 40° C. ± 2° C./75% ± 5% RH, Month 2
[15] = 40° C. ± 2° C./75% ± 5% RH, Month 3
[16] = 40° C. ± 2° C./75% ± 5% RH, Month 6

With `C#Cc1cccc(Nc2ncnc3cc(OCCOC)c(OCCOC)cc23)c1.Cl` [Erlotinib hydrochloride, 4-(3-Ethynylphenylamino)-6,7-bis(2-methoxyethoxy)-quinazoline] the “period over which stable with all impurities in limit” value (5° C. to 40° C./75% RH storage conditions of the chemical stability table) was no less than 6 months, the “Total Imp” value [1] was 0.12 % w/w and the “Imp-1 (%) (N-(3-Ethynylphenyl)-6-(2-chloroethoxy)-7-(2-methoxyethoxy)-quinazolin-4-amine hydrochloride)” value (“Imp-1 (%)” below) [1] was 0.05%. For the same molecule, the “Imp-2 (%) (N-(3-Ethynylphenyl)-7-(2-chloroethoxy)-6-(2-methoxyethoxy)-quinazolin-4-amine hydrochloride)” value (from here on “Imp-2 (%)”) [1] was 0.07%, the “m/c (%)” value [1] was 0.16% and the “Assay (%), OAB” value [1] was 99.5%. The Description [1] was “Complies”, the “Total Imp” value [2] was 0.13 % w/w and the “Imp-1 (%)” value [2] was 0.05%. The “Imp-2 (%)” value [2] was 0.08%, the “m/c (%)” value [2] was 0.15% and the “Assay (%), OAB” value [2] was 99.6%. The Description [2] was “Complies”, the “Total Imp” value [3] was 0.13 % w/w and the “Imp-1 (%)” value [3] was 0.05%. For the same molecule, the “Imp-2 (%)” value [3] was 0.08%, the “m/c (%)” value [3] was 0.15% and the “Assay (%), OAB” value [3] was 99.5%. The Description [3] was “Complies”, the “Total Imp” value [4] was 0.14 % w/w and the “Imp-1 (%)” value [4] was 0.06%. The “Imp-2 (%)” value [4] was 0.08%, the “m/c (%)” value [4] was 0.15% and the “Assay (%), OAB” value [4] was 99.8%. For the same molecule, the Description [4] was “Complies”, the “Total Imp” value [5] was 0.13 % w/w and the “Imp-1 (%)” value [5] was 0.05%. For the same molecule, the “Imp-2 (%)” value [5] was 0.08%, the “m/c (%)” value [5] was 0.14% and the “Assay (%), OAB” value [5] was 99.9%. The Description [5] was “Complies”, the “Total Imp” value [6] was 0.13 % w/w and the “Imp-1 (%)” value [6] was 0.05%. For the same molecule, the “Imp-2 (%)” value [6] was 0.08%, the “m/c (%)” value [6] was 0.13% and the “Assay (%), OAB” value [6] was 99.2%. The Description [6] was “Complies”, the “Total Imp” value [7] was 0.13 % w/w and the “Imp-1 (%)” value [7] was 0.05%. For the same molecule, the “Imp-2 (%)” value [7] was 0.08%, the “m/c (%)” value [7] was 0.14% and the “Assay (%), OAB” value [7] was 99.3%. The Description [7] was “Complies”, the “Total Imp” value [8] was 0.13 % w/w and the “Imp-1 (%)” value [8] was 0.05%. The “Imp-2 (%)” value [8] was 0.08%, the “m/c (%)” value [8] was 0.14% and the “Assay (%), OAB” value [8] was 99.9%. For the same molecule, the Description [8] was “Complies”, the “Total Imp” value [9] was 0.14 % w/w and the “Imp-1 (%)” value [9] was 0.06%. The “Imp-2 (%)” value [9] was 0.08%, the “m/c (%)” value [9] was 0.12% and the “Assay (%), OAB” value [9] was 99.6%. For the same molecule, the Description [9] was “Complies”, the “Total Imp” value [10] was 0.13 % w/w and the “Imp-1 (%)” value [10] was 0.05%. The “Imp-2 (%)” value [10] was 0.08%, the “m/c (%)” value [10] was 0.15% and the “Assay (%), OAB” value [10] was 99.4%. The Description [10] was “Complies”, the “Total Imp” value [11] was 0.13 % w/w and the “Imp-1 (%)” value [11] was 0.05%. The “Imp-2 (%)” value [11] was 0.08%, the “m/c (%)” value [11] was 0.15% and the “Assay (%), OAB” value [11] was 99.4%. The Description [11] was “Complies”, the “Total Imp” value [12] was 0.14 % w/w and the “Imp-1 (%)” value [12] was 0.06%. For the same molecule, the “Imp-2 (%)” value [12] was 0.08%, the “m/c (%)” value [12] was 0.14% and the “Assay (%), OAB” value [12] was 99.8%. For the same molecule, the Description [12] was “Complies”, the “Total Imp” value [13] was 0.14 % w/w and the “Imp-1 (%)” value [13] was 0.06%. For the same molecule, the “Imp-2 (%)” value [13] was 0.08%, the “m/c (%)” value [13] was 0.15% and the “Assay (%), OAB” value [13] was 99.3%. For the same molecule, the Description [13] was “Complies”, the “Total Imp” value [14] was 0.13 % w/w and the “Imp-1 (%)” value [14] was 0.05%. For the same molecule, the “Imp-2 (%)” value [14] was 0.08%, the “m/c (%)” value [14] was 0.16% and the “Assay (%), OAB” value [14] was 99.5%. The Description [14] was “Complies”, the “Total Imp” value [15] was 0.13 % w/w and the “Imp-1 (%)” value [15] was 0.05%. For the same molecule, the “Imp-2 (%)” value [15] was 0.08%, the “m/c (%)” value [15] was 0.16% and the “Assay (%), OAB” value [15] was 99.9%. For the same molecule, the Description [15] was “Complies”, the “Total Imp” value [16] was 0.14 % w/w and the “Imp-1 (%)” value [16] was 0.06%. The “Imp-2 (%)” value [16] was 0.08%, the “m/c (%)” value [16] was 0.17% and the “Assay (%), OAB” value [16] was 99.4%. For the same molecule, the Description [16] was “Complies”, the “HPLC single maximum impurity content” value (Initial) was 0.08 % w/w and the “HPLC total impurity content” value (Initial) was 0.13 % w/w. For the same molecule, the water content (Initial) was 0.14 % w/w, the “HPLC single maximum impurity content” value (after 3 months) was 0.08 % w/w and the “HPLC total impurity content” value (after 3 months) was 0.13 % w/w. The water content (after 3 months) was 0.14 % w/w, the “HPLC single maximum impurity content” value (after 6 months) was 0.08 % w/w and the “HPLC total impurity content” value (after 6 months) was 0.13 % w/w. For the same molecule, the water content (after 6 months) was 0.14 % w/w.
